SMILES strings stand for the structures. Values after ≈ are worked out from the molar mass of the structure shown.

The test deals with Mycobacterium tuberculosis. Kind of test: Antimycobacterial activity against Mycobacterium tuberculosis H37Rv by MABA method. The class given is functional. (In general: Resazurin is reduced to fluorescent resorufin, in cell work by metabolically active cells.)
As usually defined, the MIC99 is an inhibitory concentration at the 99% level, which refers to growth in some studies and to a panel of isolates in others. A high value points to weaker potency. As for `COc1ccc(CCN(CCCC(C#N)(c2ccc(OC)c(OC)c2)C(C)C)C2CC2)cc1OC` (stereo not drawn), the MIC99 was found to be 125 µM (≈ 60.1 µg/mL).
In turn, `CCN(CCCC(C#N)(c1ccc(OC)c(OC)c1)C(C)C)CCc1ccc(OC)c(OC)c1` (stereo not drawn) returned an MIC99 of 1000 µM (≈ 469 µg/mL).
To `CCCN(CCCC(C#N)(c1ccc(OC)c(OC)c1)C(C)C)CCc1ccc(OC)c(OC)c1` (stereo not drawn) belongs 500 µM (≈ 241 µg/mL); to `COc1ccc(CCN(CCCC(C#N)(c2ccc(OC)c(OC)c2)C(C)C)Cc2ccccc2)cc1OC` (stereo not drawn), 1000 µM (≈ 531 µg/mL); to `COc1ccc(N(C)CCCC(C#N)(c2ccc(OC)c(OC)c2)C(C)C)cc1OC` (stereo not drawn), 1000 µM (≈ 427 µg/mL).
The value for `COc1ccc(CN(C)CCCC(C#N)(c2ccc(OC)c(OC)c2)C(C)C)cc1OC` (stereo not drawn) was 1000 µM (≈ 441 µg/mL); that for `COc1ccc(C(C#N)(CCCN2CCCCC2)C(C)C)cc1OC` (stereo not drawn) was 1000 µM (≈ 344 µg/mL); that for `COc1ccc(C(C#N)(CCCN2CCOCC2)C(C)C)cc1OC` (stereo not drawn) was 1000 µM (≈ 346 µg/mL).
The value for `COc1ccc(C(C#N)(CCCN2CCC(O)CC2)C(C)C)cc1OC` (stereo not drawn) was 1000 µM (≈ 360 µg/mL); that for `COc1ccc(C(C#N)(CCCN2CCC(N3CCCCC3)CC2)C(C)C)cc1OC` (stereo not drawn) was 500 µM (≈ 214 µg/mL); that for `COc1ccc(C(C#N)(CCCN2CCC(O)(c3ccccc3)CC2)C(C)C)cc1OC` (stereo not drawn) was 250 µM (≈ 109 µg/mL).
The molecule `COc1ccc(C(C#N)(CCCN2CCN(c3ccccc3)CC2)C(C)C)cc1OC` (stereo not drawn) had an MIC99 of 250 µM (≈ 105 µg/mL).
In turn, `COc1ccc(C(C#N)(CCCN2CCN(c3ccccn3)CC2)C(C)C)cc1OC` (stereo not drawn) returned an MIC99 of 250 µM (≈ 106 µg/mL).
To `COc1ccc(C(C#N)(CCCN2CCN(c3ccccc3F)CC2)C(C)C)cc1OC` (stereo not drawn) belongs 62.5 µM (≈ 27.5 µg/mL); to `COc1ccc(CCN(C)CCCC(C#N)c2ccc(OC)c(OC)c2)cc1OC` (stereo not drawn), 1000 µM (≈ 413 µg/mL); to `COc1ccc(CCN(C)CCCC(C)(C#N)c2ccc(OC)c(OC)c2)cc1OC` (stereo not drawn), 1000 µM (≈ 427 µg/mL).
Molecule `CCC(C#N)(CCCN(C)CCc1ccc(OC)c(OC)c1)c1ccc(OC)c(OC)c1` (stereo not drawn) yielded an MIC99 of 1000 µM (≈ 441 µg/mL). In other words, the millimolar range.
To `CCCC(C#N)(CCCN(C)CCc1ccc(OC)c(OC)c1)c1ccc(OC)c(OC)c1` (stereo not drawn) belongs 500 µM (≈ 227 µg/mL); to `COc1ccc(CCN(C)CCCC(C#N)(c2ccc(OC)c(OC)c2)C2CCCC2)cc1OC` (stereo not drawn), 125 µM (≈ 60.1 µg/mL).
With `COc1ccc(CCN(C)CCCC(C#N)(c2ccc(OC)c(OC)c2)C2CCCCC2)cc1OC` (stereo not drawn), the MIC99 is 62.5 µM (≈ 30.9 µg/mL).
To `COc1ccc(CCNCCCC(C#N)(c2ccc(OC)c(OC)c2)C(C)C)cc1OC` (stereo not drawn) [NORVERAPAMIL] belongs 500 µM (≈ 220 µg/mL); to `CO[C@H]1/C=C/O[C@@]2(C)Oc3c(C)c(O)c4c(O)c(c(/C=N/N5CCN(C)CC5)c(O)c4c3C2=O)NC(=O)/C(C)=C\C=C\[C@H](C)[C@H](O)[C@@H](C)[C@@H](O)[C@@H](C)[C@H](OC(C)=O)[C@@H]1C` [RIFAMPIN], 0.0083 µM (≈ 0.00683 µg/mL); to `COc1ccc(CCN(C)CCCC(C#N)(c2ccc(OC)c(OC)c2)C(C)C)cc1OC` (stereo not drawn) [VERAPAMIL], 500 µM (≈ 227 µg/mL).
